Patent US20240360146A1, “BRUTON'S TYROSINE KINASE AND MUTANT DEGRADER, COMPOSITION AND APPLICATION THEREOF” (HANGZHOU HEALZEN THERAPEUTICS CO., LTD., priority 2021, published 2024)

Assays:
[1] = target: T1, BTK (Homo sapiens, UniProt Q06187); test: BTK degradation activity test in Mino cells; format: cell-based; settings: 16 h incubation, Western blot or Elisa
T1 construct: endogenous in cells; host or cells: Mino cells
Summary of the method: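 Mino cells treated with a concentration series of compound for 16 h, then lysed; total protein by BCA. BTK quantified by Western blot or ELISA, degradation rate calculated against blank control, and DC50 fitted from the degradation curve.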

[2] = tested on: OCI-LY10 cells; test: Inhibitory activity on OCI-LY10 cell proliferation (MTS); format: cell-based; settings: Homo sapiens, 72 h
Summary of the method: (§1)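 Cells seeded at 10000/well, treated with compounds from 1000 nM (4-fold, 8 points) for 72 h (OCI-LY10) or 168 h (Mino) at 37° C. MTS added for 2 h, stopped with SDS, absorbance read at 490 and 650 nm; IC50 from dose-response fit.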

[3] = tested on: Mino cells; test: Inhibitory activity on Mino cell proliferation (MTS); format: cell-based; settings: Homo sapiens, 168 h incubation
Summary of the method: as §1

[4] = Stability of compounds in human liver microsome; format: in vitro ADME; settings: human liver microsomes, NADPH, 37° C., sampling 0-120 min; read-out: Human liver microsome T1/2
Procedure: Compound to be tested: the compound to be tested (1 mg) was dissolved in DMSO (10 mL) to formulate to 0.1 mg/mL.
Internal standard compound: the internal standard compound (1 mg) was dissolved in DMSO (10 mL), 10 μL was taken and diluted to 10 mL to formulate to 100 ng/mL.
NADPH solution: NADPH (2.08 mg) was dissolved in PBS (50 μL) buffer to formulate to 50 mM.
Under the condition of ice bath, 1 mg of human liver microparticles was add to PBS (1 mL) buffer, then NADPH (20 μL) was added, and incubated at 37° C. for 5 min. 10 μL of the compound to be tested was added, and then samples were taken at 0, 15, 30, 60 and 120 min respectively. 10 μL of the solution was taken with a pipette each time and added to 490 μL of the solution containing the internal standard compound. The resulting solution was vortexed and then placed on ice, and then sampling at another time point continues. All samples were centrifuged at 10,000 rpm for 10 min, and the supernatant was taken for LC/MS testing. The metabolism of the compound in liver microsomes was calculated based on the peak area.

T1 sequence (Q06187 whole entry): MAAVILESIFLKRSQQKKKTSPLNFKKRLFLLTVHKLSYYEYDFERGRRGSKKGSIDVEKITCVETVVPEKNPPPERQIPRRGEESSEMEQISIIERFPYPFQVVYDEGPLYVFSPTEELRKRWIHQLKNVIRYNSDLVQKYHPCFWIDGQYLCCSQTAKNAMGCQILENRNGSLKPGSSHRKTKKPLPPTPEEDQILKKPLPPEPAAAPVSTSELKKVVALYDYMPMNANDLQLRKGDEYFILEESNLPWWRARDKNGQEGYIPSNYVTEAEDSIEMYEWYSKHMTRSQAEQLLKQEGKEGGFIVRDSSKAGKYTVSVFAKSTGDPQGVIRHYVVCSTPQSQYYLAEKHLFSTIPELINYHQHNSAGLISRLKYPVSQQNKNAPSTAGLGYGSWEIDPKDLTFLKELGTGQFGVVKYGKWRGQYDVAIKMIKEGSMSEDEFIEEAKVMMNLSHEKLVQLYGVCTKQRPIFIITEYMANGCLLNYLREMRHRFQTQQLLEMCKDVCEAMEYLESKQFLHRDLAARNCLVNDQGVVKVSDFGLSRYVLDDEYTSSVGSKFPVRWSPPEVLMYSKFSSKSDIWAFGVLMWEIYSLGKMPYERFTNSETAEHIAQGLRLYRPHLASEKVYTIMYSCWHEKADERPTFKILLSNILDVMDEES

SMILES	DC50 [1] [nM]	IC50 [2] [nM]	IC50 [3] [nM]	half-life at 0.97 µg/mL [4] [min]
CN1CCN([C@@H]2CCCN(c3nnc(C(N)=O)c(Nc4ccc(N5CCN(CC6CCN(c7ccc8c(c7)C(=O)N(C7CCC(=O)NC7=O)C8=O)C6)CC5)c(Cl)c4)n3)C2)C1=O (stereo partly drawn) [Compound 133, 5-((3-chloro-4-(4-((1-(2-(2,6-dioxopiperidin-3-yl)-1,3-dioxoisoindolin-5-yl)pyrrolidin-3-yl)methyl)piperazin-1-yl)phenyl)amino)-3-((R)-3-(3-methyl-2-oxoimidazolin-1-yl)piperidin-1-yl)-1,2,4-triazin-6-carboxamide]	< 1	0.43	3.91	31.7
CN1CCN([C@@H]2CCCN(c3nnc(C(N)=O)c(Nc4ccc(N5CCN(CC6CCN(c7ccc(C(=O)NC8CCC(=O)NC8=O)nc7)C6)CC5)c(F)c4)n3)C2)C1=O (some centres unmarked) [Compound 173]	< 1			> 30
Cc1ccc(C(=O)N2CCC(CN3CCN(c4ccc(Nc5nc(N6CCC[C@@H](N7CCN(C)C7=O)C6)nnc5C(N)=O)cc4F)CC3)C2)cc1N1CCC(=O)NC1=O (stereo partly drawn) [Compound 150, 5-((4-(4-((1-(3-(2,4-dioxotetrahydropyrimidin-1(2H)-yl)-4-methylbenzoyl)pyrrolidin-3-yl)methyl)piperazin-1-yl)-3-fluorophenyl)amino)-3-((R)-3-(3-methyl-2-oxoimidazolin-1-yl)piperidin-1-yl)-1,2,4-triazin-6-carboxamide]	< 1		1.91	> 30
CN1CCN([C@@H]2CCCN(c3nnc(C(N)=O)c(Nc4ccc(N5CCN(CC6CCN(c7ccc(C(=O)NC8CCC(=O)NC8=O)cn7)C6)CC5)c(F)c4)n3)C2)C1=O (stereo partly drawn) [Compound 174, 5-((4-(4-((1-(5-((2,6-dioxopiperidin-3-yl)carbamoyl)pyridin-2-yl)pyrrolidin-3-yl)methyl)piperazin-1-yl)-3-fluorophenyl)amino)-3-((R)-3-(3-methyl-2-oxoimidazolidin-1-yl)piperidin-1-yl)-1,2,4-triazin-6-carboxamide]	< 1	1.03		> 30
CN1CCN([C@@H]2CCCN(c3nnc(C(N)=O)c(Nc4ccc(N5CCN(CC6CCN(c7ccc(NC8CCC(=O)NC8=O)c(F)c7)CC6)CC5)c(F)c4)n3)C2)C1=O (stereo partly drawn) [Compound 205, 5-((4-(4-((1-(4-((2,6-dioxopiperidin-3-yl)amino)-3-fluorophenyl)piperidin-4-yl)methyl)piperazin-1-yl)-3-fluorophenyl)amino)-3-((R)-3-(3-methyl-2-oxoimidazolidin-1-yl)piperidin-1-yl)-1,2,4-triazin-6-carboxamide]	< 1	0.57		> 30
CN1CCN([C@@H]2CCCN(c3nnc(C(N)=O)c(Nc4ccc(N5CCN(CC6CCN(c7ccc(C(=O)NC8CCC(=O)NC8=O)c8c7OCO8)CC6)CC5)c(F)c4)n3)C2)C1=O (some centres unmarked) [Compound 177]	< 1		2.99	> 30
CN1CCN([C@@H]2CCCN(c3nnc(C(N)=O)c(Nc4ccc(N5CCN(CC6CCN(c7ccc8c9c([nH]c8c7)C(=O)N(C7CCC(=O)NC7=O)C9)CC6)CC5)c(F)c4)n3)C2)C1=O (stereo partly drawn) [Compound 222, 5-((4-(4-((1-(2-(2,6-dioxopiperidin-3-yl)-3-oxo-1,2,3,4-tetrahydropyrrolo[3,4-b]indol-6-yl)piperidin-4-yl)methyl)piperazin-1-yl)-3-fluorophenyl)amino)-3-((R)-3-(3-methyl-2-oxoimidazolidin-1-yl)piperidin-1-yl)-1,2,4-triazin-6-carboxamide]	< 1		4.15	> 30
CN1CCN([C@@H]2CCCN(c3nnc(C(N)=O)c(Nc4ccc(N5CCN(CC6CCN(c7ccc(N8CCC(=O)NC8=O)c(F)c7)CC6)CC5)c(F)c4)n3)C2)C1=O [Compound 184, (R)-5-((4-(4-((1-(4-(2,4-dioxotetrahydropyrimidin-1(2H)-yl)-3-fluorophenyl)piperidin-4-yl)methyl)piperazin-1-yl)-3-fluorophenyl)amino)-3-(3-(3-methyl-2-oxoimidazolidin-1-yl)piperidin-1-yl)-1,2,4-triazin-6-carboxamide]	< 1	1.56		> 30
CN1CCN([C@@H]2CCCN(c3nnc(C(N)=O)c(Nc4ccc(N5CCN(CC6CCN(c7ccc(C(=O)NC8CCC(=O)NC8=O)c8[nH]cnc78)CC6)CC5)c(F)c4)n3)C2)C1=O (stereo partly drawn) [Compound 179, 4-(4-((4-(4-((6-carbamoyl-3-((R)-3-(3-methyl-2-oxoimidazolidin-1-yl)piperidin-1-yl)-1,2,4-triazin-5-yl)amino)-2-fluorophenyl)piperazin-1-yl)methyl)piperidin-1-yl)-N-(2,6-dioxopiperidin-3-yl)-1Hbenzimidazol-7-carboxamide]	< 1		1.47	> 30
CN1CCN([C@@H]2CCCN(c3nnc(C(N)=O)c(Nc4ccc(N5CCN(CC6CCN(c7ccc8c(=O)n(C9CCC(=O)NC9=O)ccc8c7)CC6)CC5)c(F)c4)n3)C2)C1=O (stereo partly drawn) [Compound 232, 5-((4-(4-((1-(2-(2,6-dioxopiperidin-3-yl)-1-oxo-1,2-dihydroisoquinolin-6-yl)piperidin-4-yl)methyl)piperazin-1-yl)-3-fluorophenyl)amino)-3-((R)-3-(3-methyl-2-oxoimidazolidin-1-yl)piperidin-1-yl)-1,2,4-triazin-6-carboxamide]	< 1	0.83		> 30
CN1CCN([C@@H]2CCCN(c3nnc(C(N)=O)c(Nc4ccc(N5CCN(CC6CCN(c7ccc8c(c7)C(=O)N(C7CCC(=O)NC7=O)C8=O)CC6)CC5)c(F)c4)n3)C2)C1=O (stereo partly drawn) [Compound 134, 5-((4-(4-((1-(2-(2,6-dioxopiperidin-3-yl)-1,3-dioxoisoindolin-5-yl)piperidin-4-yl)methyl)piperazin-1-yl)-3-fluorophenyl)amino)-3-((R)-3-(3-methyl-2-oxoimidazolin-1-yl)piperidin-1-yl)-1,2,4-triazin-6-carboxamide]	< 1		1.72	> 30
CN1CCN([C@@H]2CCCN(c3nnc(C(N)=O)c(Nc4ccc(N5CCN(CC6CCN(c7ccc8c(c7)n(C)c(=O)n8C7CCC(=O)NC7=O)C6)CC5)c(F)c4)n3)C2)C1=O (stereo partly drawn) [Compound 218, 5-((4-(4-((1-(1-(2,6-dioxopiperidin-3-yl)-3-methyl-2-oxo-2,3-dihydro-H-benzo[d]imidazol-5-yl)pyrrolidin-3-yl)methyl)piperazin-1-yl)-3-fluorophenyl)amino)-3-((R)-3-(3-methyl-2-oxoimidazolidin-1-yl)piperidin-1-yl)-1,2,4-triazin-6-carboxamide]	< 1			> 30
CN1CCN([C@@H]2CCCN(c3nnc(C(N)=O)c(Nc4ccc(C5CCN(CC6(C)CCN(c7ccc8c(c7)C(=O)N(C7CCC(=O)NC7=O)C8=O)C6)CC5)cc4)n3)C2)C1=O (stereo partly drawn) [Compound 120, 5-((4-(1-((1-(2-(2,6-dioxopiperidin-3-yl)-1,3-dioxoisoindolin-5-yl)-3-methylpyrrolidin-3-yl)methyl)piperidin-4-yl)phenyl)amino)-3-((R)-3-(3-methyl-2-oxoimidazolin-1-yl)piperidin-1-yl)-1,2,4-triazin-6-carboxamide]	< 1	0.21	1.76	
CN1CCN([C@@H]2CCCN(c3ncc(C(N)=O)c(Nc4ccc(N5CCN(CC6CCN(c7ccc8c(c7)C(=O)N(C7CCC(=O)NC7=O)C8=O)C6)CC5)cc4)n3)C2)C1=O (stereo partly drawn) [Compound 115, 4-((4-(4-((1-(2-(2,6-dioxopiperidin-3-yl)-1,3-dioxoisoindolin-5-yl)pyrrolidin-3-yl)methyl)piperazin-1-yl)phenyl)amino)-2-((R)-3-(3-methyl-2-oxoimidazolin-1-yl)piperidin-1-yl)pyrimidin-5-carboxamide]	< 1	0.59	5.97	
COc1cc(N2CCC(CN3CCN(c4ccc(Nc5nc(N6CCC[C@@H](N7CCN(C)C7=O)C6)nnc5C(N)=O)cc4F)CC3)CC2)ccc1C(=O)NC1CCC(=O)NC1=O (stereo partly drawn) [Compound 181, 5-((4-(4-((1-(4-((2,6-dioxopiperidin-3-yl)carbamoyl)-3-methoxyphenyl)piperidin-4-yl)methyl)piperazin-1-yl)-3-fluorophenyl)amino)-3-((R)-3-(3-methyl-2-oxoimidazolidin-1-yl)piperidin-1-yl)-1,2,4-triazin-6-carboxamide]	< 1	0.78		> 30
